According to publication PMC2811193, “Complementary Roles in Cancer Prevention: Protease Inhibitor Makes the Cancer Preventive Peptide Lunasin Bioavailable” (PLoS ONE, 2010):

Columns and labels:
[1] = tested on: DMBA-induced NIH3T3 cells; experiment: Foci formation assay in DMBA-induced NIH3T3 cells; format: cell-based
Protocol: The foci formation assay was performed according to Reznikoff et al. NIH3T3 cells were obtained from American Type Culture Collection (ATCC) and cultured in RPMI 1640 medium supplemented with 10% fetal bovine serum (FBS) (Invitrogen, Carlsbad, CA, USA). Cells were plated at a density of 500 cells/well in 12-well plates, incubated overnight at 37°C and treated with lunasin or BBI for 4 hrs. Then, cells were treated with 1.5 µg/ml DMBA for 20 hrs. After washing with PBS, fresh medium was added. Peptides were added and medium was changed every week for 6 weeks. At the end of experiment, cells were washed with 0.9% NaCl, fixed with methanol, stained with Giemsa, and scored for transformed foci. The negative control was a set of cells receiving no DMBA, while the positive control consisted of cells induced by DMBA but without treatment.

[2] = Lunasin in blood and liver of rats fed LES diet for 4 weeks; format: in vivo; conditions: female, Sprague-Dawley, rat, po, 0.25 % of the diet, rats fed dietary LES for 4 weeks
Excerpt: Sprague-Dawley Rats (Female, 5-weeks old) were purchased from Central Laboratory Animal Inc. (Korea), and experiments were done according with guidelines of the Animal Center at Andong National University (Andong, Korea). Five rats were fed ad libitum with LES and potato starch (0.25% of the diet) for 4 weeks, and then sacrificed. Livers and serum were collected and freeze-dried immediately. One gram of the freeze-dried tissues was extracted with 0.1 M PBS (pH 7.0) (buffer∶tissue ratio (v/w) = 1∶3) at 4°C for 24 hrs, and then centrifuged at 15000 rpm for 1 h. The supernatant protein was further purified by ion exchange chromatography on Biogel resin AG 1-X4 (BioRad), as described by Jeong et al.. Lunasin was further purified by injecting 20 µl of filtrate into the HPLC system equipped with a C18 column (Proteo 90A, Phenomenex Co., Torrance, CA, USA) equilibrated at ambient temperature and an UV detector (295 nm) stabilized with the mobile phase (acetonitrile∶water = 4∶6), at a flow rate of 2.5 ml/min for 15 min. Lunasin was identified by comparison with the retention time of standard synthetic lunasin peak. The lunasin fraction was collected, freeze dried and analyzed by SDS-PAGE and Western-Blot as described above.
Supplementary file pone.0008890.s002.tif: Figure S2 Lunasin was extracted from blood and liver of rats fed control and lunasin-enriched soy (LES) diets for four weeks. […]

pancreatin = experiment: In vitro digestion of lunasin with pancreatin, with or without protease inhibitors; format: in vitro ADME, porcine; conditions: pig, pancreatin from porcine pancreas; in the presence of boiled KTI; pre-incubation with inhibitor 30 min at 25°C; pancreatin 1 h at 37°C; Western-Blot band intensity; read-out: lunasin remaining intact after digestion with pancreatin
Protocol: (§1) Figure 2 Soy-derived BBI and KTI protect synthetic lunasin from in vitro digestion. The upper, lighter bands are Coomassie Blue protein stains and the lower, darker bands are Western blots. (M) Markers, (1) Lunasin (600 ng) + pancreatin (600 ng) incubated for 0 h at 37°C, (2) Lunasin (600 ng) + pancreatin (600 ng) incubated for 1 h at 37°C, (3) Lunasin (600 ng) + BBI (18,000 ng, unboiled) + pancreatin (600 ng) incubated for 1 h at 37°C, (4). Lunasin (600 ng) + KTI (18,000 ng, unboiled) + pancreatin (600 ng) incubated for 1 h at 37°C, (5) Lunasin (600 ng) + BBI (18,000 ng, boiled) + pancreatin (600 ng) incubated for 1 h at 37°C, (6) Lunasin (600 ng)+KTI (18,000 ng, boiled) + pancreatin (600 ng) incubated for 1 h at 37°C, (7) BBI (unboiled), (8) KTI (unboiled).
(§2) In vitro digestion of lunasin was carried out following the method published in the United States Pharmacopeia. Synthetic lunasin (American Peptide Company, Inc. Sunnyvale, CA, USA) (5 µg) was incubated with the protease inhibitors BBI or KTI (Sigma, St. Louis, MO, USA) for 30 min at 25°C. Pancreatin from porcine pancreas (Sigma) was added (enzyme∶protein ratio of 1∶10) and solution was incubated at 37°C for 1 h. Tris-tricine sample buffer was added at the end of the reaction and immediately stopped by placing the tubes in a boiling water bath for 5 min. The digests were analyzed by SDS-PAGE and Western-Blot following the protocol previously described.

[3] = tested on: Pancreatin from porcine pancreas; experiment: as above; format: in vitro ADME; conditions: pre-incubation with inhibitor 30 min at 25°C, pancreatin 1 h at 37°C, Western-Blot band intensity
Protocol: as §1, §2

Question: Which “lunasin more effective than BBI in foci formation inhibition on an equimolar basis” value ([1]; 100 nM each) does the source give for `CC[C@H](C)[C@H](NC(=O)[C@H](CCCCN)NC(=O)[C@H](CCC(=O)O)NC(=O)[C@H](CCSC)NC(=O)[C@@H](NC(=O)[C@H](Cc1c[nH]cn1)NC(=O)[C@H](CCCCN)NC(=O)[C@H](CCC(=O)O)NC(=O)[C@H](CS)NC(=O)[C@@H]1CCCN1C(=O)[C@@H](NC(=O)[C@H](CC(C)C)NC(=O)[C@H](CC(N)=O)NC(=O)[C@@H](NC(=O)CNC(=O)[C@H](CCC(N)=O)NC(=O)[C@H](CC(C)C)NC(=O)[C@H](CCC(N)=O)NC(=O)[C@H](CCCCN)NC(=O)[C@H](CCCNC(=N)N)NC(=O)[C@H](CS)NC(=O)[C@H](CO)NC(=O)[C@H](CC(=O)O)NC(=O)[C@H](CCC(N)=O)NC(=O)[C@H](CCC(N)=O)NC(=O)[C@H](Cc1c[nH]cn1)NC(=O)[C@H](CCC(N)=O)NC(=O)[C@H](Cc1c[nH]c2ccccc12)NC(=O)[C@H](CCCCN)NC(=O)[C@@H](N)CO)C(C)C)[C@@H](C)O)[C@@H](C)CC)C(=O)N[C@@H](CCC(N)=O)C(=O)NCC(=O)N[C@@H](CCCNC(=N)N)C(=O)NCC(=O)N[C@@H](CC(=O)O)C(=O)N[C@@H](CC(=O)O)C(=O)N[C@@H](CC(=O)O)C(=O)N[C@@H](CC(=O)O)C(=O)N[C@@H](CC(=O)O)C(=O)N[C@@H](CC(=O)O)C(=O)N[C@@H](CC(=O)O)C(=O)N[C@@H](CC(=O)O)C(=O)N[C@@H](CC(=O)O)C(=O)O` [lunasin] here?
Answer: 18%

Question: What about the “reduction of foci formation” value ([1]; 100 nM peptide, 1.5 µg/ml DMBA, 6 weeks, n = 6) of the same compound?
Answer: 73%

Question: And the “suppression of foci formation” value ([1]; 1 µM lunasin extracted from the liver of LES-fed rats, n = 6)?
Answer: as effectively as an equimolar amount of synthetic lunasin

Question: And the level at 672 h ([2]; blood, present as a monomer, Western-blot after anion exchange-HPLC purification, read-out: lunasin concentration in blood)?
Answer: 17.5 ng/mL

Question: And the tissue level at time at 672 h ([2]; liver, exists as a dimer, Western-blot, read-out: lunasin concentration in liver)?
Answer: 3100 ng/g

Question: What about the remaining at 1 h (pancreatin) of the same compound?
Answer: 84%

Question: And the “lunasin remaining intact after digestion with pancreatin” value (“lunasin remaining intact” for short) ([3]; in the presence of boiled BBI)?
Answer: 98%

Question: And the “lunasin remaining intact” value ([3]; in the presence of unboiled BBI)?
Answer: Approximately 93%

Question: And the “lunasin remaining intact” value ([3]; in the presence of unboiled KTI)?
Answer: ~97%
